Assay results taken from PMC2790023 (Journal of medicinal chemistry, 2009).
“Also recorded” adds a separate entry of the source.

Assays:
[1] = system: VHR, PTP1B, CD45, HePTP, Shp2, and YopH; type: biochemical
[2] = target: VHR (Homo sapiens, UniProt P51452); experiment: Ki determination, Michaelis-Menten kinetics with pNPP; type: biochemical
[3] = system: HeLa cells; experiment: AnnexinV/PI flow cytometry apoptosis assay; conditions: 20 μM, 24 h
[4] = system: CaSki cells; experiment: AnnexinV/PI flow cytometry apoptosis assay; conditions: 20 μM, 24 h
[5] = system: HeLa cells; experiment: Cell numbers; type: cell-based; conditions: 20 μM, 24 h

VHR, sequence (P51452 whole entry): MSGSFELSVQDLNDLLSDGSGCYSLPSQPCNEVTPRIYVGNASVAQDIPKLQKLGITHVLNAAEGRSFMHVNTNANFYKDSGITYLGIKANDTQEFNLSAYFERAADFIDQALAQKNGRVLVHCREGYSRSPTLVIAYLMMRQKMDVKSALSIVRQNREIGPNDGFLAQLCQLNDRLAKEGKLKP

Structure (SMILES) | Selectivity for VHR in counter screen [1] | Inhibition pattern (Lineweaver-Burk plot) [2] | Ki ([2]; Ki, pNPP substrate) [nM] | Percentage of AnnexinV/PI negative cells versus vehicle [3] | Percentage of AnnexinV/PI negative cells versus vehicle [4] | HeLa cell numbers, percentage of the DMSO control [5]
O=C1/C(=C/C=C/c2ccccc2)SC(=S)N1CCS(=O)(=O)O [compound 1, 2-((Z)-4-oxo-5-((E)-3-phenylallylidene)-2-thioxothiazolidin-3-yl)ethane-sulfonic acid] | selectively inhibiting VHR; also recorded: selective for VHR | competitively inhibited VHR; also recorded: clear competitive inhibition pattern | 809 | – | – | –
O=C1/C(=C/c2cn(-c3ccccc3)nc2-c2ccc(OCc3ccccc3F)cc2)SC(=S)N1CCS(=O)(=O)O [SA3] | – | – | – | no difference | no difference | less than 50%
O=C1/C(=C/c2cn(-c3ccccc3)nc2-c2ccc(OCc3ccccc3Cl)cc2)SC(=S)N1CCS(=O)(=O)O [SA2] | – | – | – | no difference | no difference | –
COc1ccc(OC)c2c1C(=O)c1ccccc1C2=O [compound 8, 1,4-dimethoxyanthracene-9,10-dione] | selectively inhibiting VHR; also recorded: selective for VHR | – | – | – | – | –
